Values after ≈ are worked out from the molar mass of the structure shown. Active and inactive are the calls of the source. The rule behind the calls is not given here.
Key:
[1] = test system: Mycobacterium tuberculosis; assay: Antimycobacterial activity against Mycobacterium tuberculosis Erdman infected in BALB/c mouse assessed as reduction of bacterial load at 200 mg/kg, po qd for 5 days per week administered 60 days after infection measured after 85 days post infection; type: functional, organism-based; set-up: dose 200 mg/kg
[2] = test system: Mycobacterium tuberculosis; assay: Antimycobacterial activity against Mycobacterium tuberculosis H37Rv ATCC 27294 in GAS medium after 1 week by microplate alamar blue assay; type: functional; settings: H37Rv ATCC 27294, 168 h
[3] = test system: Mycobacterium tuberculosis; assay: Antimycobacterial activity against Mycobacterium tuberculosis H37Rv ATCC 27294 in GAST medium after 1 week by microplate alamar blue assay; type: functional; settings: H37Rv ATCC 27294, 168 h

SMILES | Activity [1] | MIC [2] | MIC [3]
CCOc1ccc(C2=N[C@H](C(=O)OCc3ccccc3)CO2)cc1F | inactive | 50.5 µM (≈ 17.3 µg/mL) | 3.91 µM (≈ 1.34 µg/mL)
Cc1oc(-c2ccccc2O)nc1C(=O)O | inactive | > 128 µM | > 128 µM
CCCOc1ccc(C2=N[C@H](C(=O)OCc3ccccc3)CO2)cc1 | inactive | 2.97 µM (≈ 1.01 µg/mL) | 22.4 µM (≈ 7.6 µg/mL)
O=C(OCc1ccccc1)c1coc(-c2cccc(Br)c2)n1 | inactive | 1.93 µM (≈ 0.691 µg/mL) | 6.08 µM (≈ 2.18 µg/mL)
CCCCOc1ccc(C2=N[C@H](C(=O)OCc3ccccc3)CO2)cc1 | inactive | 2.72 µM (≈ 0.961 µg/mL) | 5.11 µM (≈ 1.81 µg/mL)
COc1ccc(-c2nc(C(=O)OCc3ccccc3)co2)cc1OC | inactive | 16 µM (≈ 5.43 µg/mL) | 17.5 µM (≈ 5.94 µg/mL)
Cc1ccc(C2=N[C@H](C(=O)OCc3ccccc3)CO2)cc1 | inactive | 15.5 µM (≈ 4.58 µg/mL) | 27.3 µM (≈ 8.06 µg/mL)
O=C(OCc1ccccc1)[C@@H]1COC(c2ccncc2)=N1 | inactive | 55.6 µM (≈ 15.7 µg/mL) | 81.3 µM (≈ 23 µg/mL)
C[C@@H]1OC(c2ccccc2)=N[C@@H]1C(=O)O | inactive | > 128 µM | > 128 µM
Cc1ccc(-c2nc(C(=O)OCc3ccccc3)co2)cn1 | inactive | 3.01 µM (≈ 0.886 µg/mL) | 10.2 µM (≈ 3 µg/mL)
O=C(OCc1ccccc1)[C@@H]1COC(Cc2ccccc2)=N1 | inactive | > 128 µM | > 128 µM
Cc1oc(-c2ccccc2)nc1C(=O)O | inactive | > 128 µM | > 128 µM
CCCCOc1ccc(-c2nc(C(=O)OCc3ccccc3)co2)cc1 | inactive | 1.76 µM (≈ 0.618 µg/mL) | 3.83 µM (≈ 1.35 µg/mL)
O=C(OCc1ccccc1)[C@@H]1COC(c2ccc(Cl)cc2)=N1 | inactive | 61 µM (≈ 19.3 µg/mL) | 14.9 µM (≈ 4.7 µg/mL)
COC(=O)[C@@H]1COC(c2cccc(Cl)c2)=N1 | inactive | > 128 µM | 68.7 µM (≈ 16.5 µg/mL)
O=C(O)[C@@H]1COC(c2cccc(Cl)c2)=N1 | inactive | > 128 µM | 106 µM (≈ 23.9 µg/mL)
COc1ccccc1-c1nc(C(=O)OCc2ccccc2)co1 | inactive | 3.88 µM (≈ 1.2 µg/mL) | 7.54 µM (≈ 2.33 µg/mL)
O=C(OCc1ccccc1)c1coc(-c2ccc(Cl)c(F)c2)n1 | inactive | 2.87 µM (≈ 0.952 µg/mL) | 22.4 µM (≈ 7.43 µg/mL)

SMILES | Activity [1] | MIC [2] | MIC [3]
O=C(OCc1ccccc1)[C@@H]1COC(c2ccc(Br)nc2)=N1 | inactive | 22.9 µM (≈ 8.27 µg/mL) | 21.1 µM (≈ 7.62 µg/mL)
COc1ccc(C2=N[C@H](C(=O)OCc3ccccc3)CO2)cc1Cl | inactive | 60.7 µM (≈ 21 µg/mL) | 7.58 µM (≈ 2.62 µg/mL)
O=C(OCc1ccccc1)[C@@H]1COC(c2ccc([N+](=O)[O-])cc2F)=N1 | inactive | 13 µM (≈ 4.48 µg/mL) | 8.7 µM (≈ 3 µg/mL)
Nc1ccc(C2=N[C@H](C(=O)OCc3ccccc3)CO2)cc1 | inactive | 25.4 µM (≈ 7.53 µg/mL) | 26.8 µM (≈ 7.94 µg/mL)
O=C(OCc1ccccc1)c1coc(-c2ccccn2)n1 | inactive | 2 µM (≈ 0.561 µg/mL) | 2.47 µM (≈ 0.692 µg/mL)
O=C(OCc1ccccc1)c1coc(-c2cnccn2)n1 | inactive | 7.32 µM (≈ 2.06 µg/mL) | 22.5 µM (≈ 6.33 µg/mL)
COc1ccccc1C1=N[C@H](C(=O)OCc2ccccc2)CO1 | inactive | 37 µM (≈ 11.5 µg/mL) | 29.2 µM (≈ 9.09 µg/mL)
O=C(OCc1ccccc1)c1coc(-c2ccc([N+](=O)[O-])cc2)n1 | inactive | 1.79 µM (≈ 0.58 µg/mL) | 42.3 µM (≈ 13.7 µg/mL)
O=C(OCc1ccccc1)c1coc(-c2cccc(Cl)c2OCc2ccccc2)n1 | inactive | 5.4 µM (≈ 2.27 µg/mL) | > 128 µM
O=C(OCc1ccccc1)[C@@H]1COC(c2cnccn2)=N1 | inactive | 61.2 µM (≈ 17.3 µg/mL) | > 128 µM
O=C(OCc1ccccc1)[C@@H]1COC(c2cccc(F)c2)=N1 | inactive | 60.7 µM (≈ 18.2 µg/mL) | 6.86 µM (≈ 2.05 µg/mL)
O=C(OCc1ccccc1)[C@@H]1COC(c2cncc(Br)c2)=N1 | inactive | 27.6 µM (≈ 9.97 µg/mL) | 26.6 µM (≈ 9.61 µg/mL)
N#Cc1cccc(C2=N[C@H](C(=O)OCc3ccccc3)CO2)c1 | inactive | 47.2 µM (≈ 14.5 µg/mL) | 75.1 µM (≈ 23 µg/mL)
COc1cccc(-c2nc(C(=O)OCc3ccccc3)co2)c1 | inactive | 6.04 µM (≈ 1.87 µg/mL) | 3.76 µM (≈ 1.16 µg/mL)
Cc1ccc(-c2nc(C(=O)OCc3ccccc3)co2)cc1 | inactive | 12.8 µM (≈ 3.77 µg/mL) | 7.68 µM (≈ 2.25 µg/mL)
O=C(OCc1ccccc1)c1coc(-c2cccnc2)n1 | inactive | 3.82 µM (≈ 1.07 µg/mL) | 6.2 µM (≈ 1.74 µg/mL)
O=C(OCc1ccccc1)[C@@H]1COC(c2ccccc2Cl)=N1 | inactive | 49.9 µM (≈ 15.8 µg/mL) | 15.2 µM (≈ 4.8 µg/mL)

Source: ChEMBL document CHEMBL1157845, “Structure-activity relationship of new anti-tuberculosis agents derived from oxazoline and oxazole benzyl esters” (Eur J Med Chem, 2010)
